# How the values were obtained:
# [1] = target: T1, glucocorticoid receptor (GR) (Homo sapiens, UniProt P04150); test: Binding to the glucocorticoid receptor (GR), recombinant receptor in cytosol preparations of Sf9 cells, [3H]-dexamethasone as reference; conditions: reference [3H]-dexamethasone
# T1 construct: made in house; host or cells: Sf9 insect cells infected with recombinant baculovirus; cytosol preparation
# T1 sequence (P04150 1-777): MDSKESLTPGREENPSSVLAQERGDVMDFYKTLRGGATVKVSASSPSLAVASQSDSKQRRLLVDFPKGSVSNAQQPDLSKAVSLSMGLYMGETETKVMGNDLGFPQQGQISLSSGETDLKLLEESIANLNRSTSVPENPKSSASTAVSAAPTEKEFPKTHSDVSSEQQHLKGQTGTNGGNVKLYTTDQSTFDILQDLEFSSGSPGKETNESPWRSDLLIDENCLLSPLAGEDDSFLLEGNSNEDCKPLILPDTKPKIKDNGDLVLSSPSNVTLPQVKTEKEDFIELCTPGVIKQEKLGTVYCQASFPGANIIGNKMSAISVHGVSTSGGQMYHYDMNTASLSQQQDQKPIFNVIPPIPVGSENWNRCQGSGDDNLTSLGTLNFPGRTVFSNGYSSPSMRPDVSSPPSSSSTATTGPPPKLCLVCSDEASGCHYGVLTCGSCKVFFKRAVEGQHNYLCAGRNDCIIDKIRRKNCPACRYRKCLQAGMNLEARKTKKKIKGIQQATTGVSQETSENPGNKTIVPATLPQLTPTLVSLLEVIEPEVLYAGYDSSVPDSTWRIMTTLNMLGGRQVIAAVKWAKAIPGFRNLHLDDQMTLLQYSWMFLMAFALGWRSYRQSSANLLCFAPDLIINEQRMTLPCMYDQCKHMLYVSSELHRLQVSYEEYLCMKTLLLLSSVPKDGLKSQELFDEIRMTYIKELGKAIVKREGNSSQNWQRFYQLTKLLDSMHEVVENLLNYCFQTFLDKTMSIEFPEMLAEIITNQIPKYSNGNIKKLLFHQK
# Source text: The binding of the substances to the glucocorticoid receptor (GR) and other steroid hormone receptors (mineral corticoid receptor (MR), progesterone receptor (PR) and androgen receptor (AR)) is examined with the aid of recombinantly produced receptors. Cytosol preparations of Sf9 cells, which had been infected with recombinant baculoviruses, which code for the GR, are used for the binding studies. In comparison to reference substance [^3H]-dexamethasone, the substances show a high to very high affinity to GR.
# [2] = tested on: IL-8 secretion in human monocyte cell line THP-1; test: Inhibition of LPS-triggered secretion of cytokine IL-8 in THP-1 cells (ELISA); format: cell-based; conditions: for IC50: Homo sapiens, THP-1 cells, LPS-triggered, ELISA of supernatant, read-out: IC50(IL8); for efficacy of IL-8 inhibition: in comparison with dexamethasone as reference
# Description: The concentration of the cytokines was determined in the supernatant by means of commercially available ELISA kits.
structure (smiles),measurement,setting,value
"COc1ccc(C(Nc2cccc3[nH]c(=O)ccc23)C(O)(CSC)C(F)(F)F)c(F)c1 (stereo not drawn) [Example 1, 5-{[1-(2-Fluoro-4-methoxyphenyl)-3,3,3-trifluoro-2-hydroxy-2-([methylsulfanyl]methyl)propyl]amino}-1H-quinolin-2-one]",IC50,[1],6.8 nM
"COc1ccc(C(Nc2cc(F)cc3[nH]c(=O)ccc23)C(O)(CO)C(F)(F)F)c(Cl)c1F (stereo not drawn) [Example 7, 5-{[1-(2-Chloro-3-fluoro-4-methoxyphenyl)-3,3,3-trifluoro-2-hydroxy-2-(hydroxymethyl)-propyl]amino}-7-fluoro-1H-quinolin-2-one]",IC50,[1],7.1 nM
same,IC50,[2],0.44 nM
same,efficacy of IL-8 inhibition,[2],98%
"CCSCC(O)(C(Nc1cc(F)cc2[nH]c(=O)ccc12)c1ccc(OC)c(F)c1Cl)C(F)(F)F (stereo not drawn) [Example 4, 5-{[1-(2-Chloro-3-fluoro-4-methoxyphenyl)-2-([ethylsulfanyl]methyl)-3,3,3-trifluoro-2-hydroxypropyl]amino}-7-fluoro-1H-quinolin-2-one]",IC50,[1],5.7 nM
same,IC50,[2],0.61 nM
same,efficacy of IL-8 inhibition,[2],97%
"COc1c(F)cc(Cl)cc1C(Nc1cc(F)cc2[nH]c(=O)ccc12)C(O)(CO)C(F)(F)F (stereo not drawn) [Example 8, 5-{[1-(5-Chloro-3-fluoro-2-methoxyphenyl)-3,3,3-trifluoro-2-hydroxy-2-(hydroxymethyl)-propyl]amino}-7-fluoro-1H-quinolin-2-one]",IC50,[2],3.1 nM
same,efficacy of IL-8 inhibition,[2],80%
"COCC(O)(C(Nc1cc(F)cc2[nH]c(=O)ccc12)c1ccc(OC)c(F)c1Cl)C(F)(F)F (stereo not drawn) [Example 5, 5-{[1-(2-Chloro-3-fluoro-4-methoxyphenyl)-3,3,3-trifluoro-2-hydroxy-2-(methoxymethyl)propyl]amino}-7-fluoro-1H-quinolin-2-one]",IC50,[1],3.1 nM
same,IC50,[2],0.19 nM
same,efficacy of IL-8 inhibition,[2],98%

# Reference: patent publication USRE47047E1, “5-[(3,3,3-trifluoro-2-hydroxy-1-arylpropyl)amino]-1H-quinolin-2-ones, a process for their production and their use as anti-inflammatory agents” (ASTRAZENECA AB, priority 2007, dated 2018)
